# Literature values as cited in patent US20200275650A1, “NOVEL POLYMER COATED CHLO[…]” (priority 2017, published 2020).
# Settings: technical chlorothalonil; well documented
smiles,measurement,value
"N#Cc1c(Cl)c(Cl)c(Cl)c(C#N)c1Cl [technical chlorothalonil, chlorothalonil]",Median Lethal Concentration (acute inhalation toxicity),0.1 mg/L
